In patent US8710043B2, “TRPM8 antagonists and their use in treatments” (Amgen Inc., priority 2011, dated 2014):

molecular target: T1, human TRPM8 (Homo sapiens, UniProt Q7Z2W7); assay: Luminescence readout assay for measuring intracellular calcium, icilin activation; type: cell-based; conditions: CHO cells expressing human TRPM8, aequorin luminescence, 1 μM icilin activation; read-out: hTRPM8 IC50
T1 construct: expressed in transfected cells; host or cells: Chinese hamster ovary (CHO) cells, T-REx tetracycline-inducible system, co-transfected with aequorin
T1 sequence (Q7Z2W7 whole entry): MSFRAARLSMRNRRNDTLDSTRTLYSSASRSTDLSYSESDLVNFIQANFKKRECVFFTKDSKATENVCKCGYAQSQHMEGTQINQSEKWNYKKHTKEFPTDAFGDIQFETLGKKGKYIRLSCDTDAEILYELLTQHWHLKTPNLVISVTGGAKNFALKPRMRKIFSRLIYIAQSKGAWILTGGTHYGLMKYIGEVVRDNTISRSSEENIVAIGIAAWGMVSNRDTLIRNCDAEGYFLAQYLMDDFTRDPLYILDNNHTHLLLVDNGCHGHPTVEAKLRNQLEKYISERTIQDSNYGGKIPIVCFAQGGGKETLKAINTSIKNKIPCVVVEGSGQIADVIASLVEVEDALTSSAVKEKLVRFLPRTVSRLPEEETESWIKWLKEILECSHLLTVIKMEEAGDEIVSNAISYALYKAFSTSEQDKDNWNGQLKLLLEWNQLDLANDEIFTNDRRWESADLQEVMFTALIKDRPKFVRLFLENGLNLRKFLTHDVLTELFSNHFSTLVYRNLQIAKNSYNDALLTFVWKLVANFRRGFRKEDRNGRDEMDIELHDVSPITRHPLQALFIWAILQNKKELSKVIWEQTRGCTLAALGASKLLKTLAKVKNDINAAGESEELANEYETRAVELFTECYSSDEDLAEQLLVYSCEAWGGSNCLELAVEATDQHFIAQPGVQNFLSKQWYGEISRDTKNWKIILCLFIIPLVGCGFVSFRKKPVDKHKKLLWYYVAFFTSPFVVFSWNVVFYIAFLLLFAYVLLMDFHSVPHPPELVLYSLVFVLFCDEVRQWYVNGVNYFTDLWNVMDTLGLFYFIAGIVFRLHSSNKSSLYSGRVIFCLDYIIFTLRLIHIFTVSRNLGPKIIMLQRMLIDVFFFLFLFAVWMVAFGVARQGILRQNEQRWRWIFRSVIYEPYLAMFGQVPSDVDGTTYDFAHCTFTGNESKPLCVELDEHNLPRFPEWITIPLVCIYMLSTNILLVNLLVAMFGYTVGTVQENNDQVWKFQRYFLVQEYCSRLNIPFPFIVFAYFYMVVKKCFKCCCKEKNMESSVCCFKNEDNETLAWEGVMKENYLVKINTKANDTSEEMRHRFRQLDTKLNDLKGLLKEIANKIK
Method: Luminescence Readout Assay for Measuring Intracellular Calcium.
A stable Chinese hamster ovary cell line expressing human TRPM8 was generated using tetracycline inducible T-REx™ expression system from Invitrogen, Inc. (Carlsbad, Calif.). […] Twenty four hours before the assay, cells were seeded in 96-well plates and TRPM8 expression was induced with 0.5 μg/mL tetracycline. […] Potential antagonists were added 2.5 min prior to the addition of agonist, 1 μM icilin, 100 μM L-menthol, or 1 min prior to the addition of cold buffer (<10° C.). The luminescence was measured by a CCD camera based FLASH-luminometer built by Amgen, Inc. A cooling device attached to FLASH luminometer was used for cold activation.

| IC50 [µM] | Structure (SMILES) |
| --- | --- |
| 3.37 | O=C(Cn1ccnc1)N[C@@H](c1ccc(C(F)(F)F)cc1)c1ncccc1C(F)(F)F [Example 161, (S)-2-(1H-imidazol-1-yl)-N-((4-(trifluoromethyl)phenyl)(3-(trifluoromethyl)pyridin-2-yl)methyl)acetamide 2,2,2-trifluoroacetate] |
| 2.53 | O=C(CN1CCOC1=O)N[C@@H](c1ccc(C(F)(F)F)cc1)c1ncccc1C(F)(F)F [Example 154, (S)-2-(2-oxooxazolidin-3-yl)-N-((4-(trifluoromethyl)phenyl)(3-(trifluoromethyl)pyridin-2-yl)methyl)acetamide] |
| 1.11 | CC(C)(C)c1cccnc1[C@@H](NC(=O)c1ccc2cccnc2c1)c1ccc(C(F)(F)F)cc1 [Example 286, (S)—N-((3-(tert-Butyl)pyridin-2-yl)(4-(trifluoromethyl)phenyl)-methyl)quinoline-7-carboxamide 2,2,2-trifluoroacetate] |
| 0.0453 | O=C(N[C@@H](c1ccc(C(F)(F)F)cc1)c1ncccc1F)c1cccc(F)c1 [Example 187, (S)-3-fluoro-N-((3-fluoropyridin-2-yl)(4-(trifluoromethyl)phenyl)methyl)benzamide] |
| 0.0949 | Cc1ncc(C(=O)N[C@@H](c2ccc(C(F)(F)F)cc2)c2ncccc2C(F)(F)F)c(N)n1 [Example 137, (S)-4-amino-2-methyl-N-((4-(trifluoromethyl)phenyl)(3-(trifluoromethyl)pyridin-2-yl)methyl)pyrimidine-5-carboxamide] |
| 0.418 | O=C(N[C@@H](c1ccc2ncccc2c1)c1ncccc1C(F)(F)F)c1ccc2cccnc2c1 [Example 22, (S)-N-(quinolin-6-yl(3-(trifluoromethyl)pyridin-2-yl)methyl)quinoline-7-carboxamide] |
| 0.257 | CC(=O)Nc1ccc(C(=O)N[C@@H](c2ccc(C(F)(F)F)cc2)c2ncccc2C(F)(F)F)cn1 [Example 148, (S)-6-acetamido-N-((4-(trifluoromethyl)phenyl)(3-(trifluoromethyl)pyridin-2-yl)methyl)nicotinamide 2,2,2-trifluoroacetate] |
| 0.965 | O=C(N[C@@H](c1ccc(F)c(F)c1)c1ncccc1F)c1ccc(=O)[nH]c1 [Example 331, (S)-N-((3,4-difluorophenyl)(3-fluoropyridin-2-yl)methyl)-6-oxo-1,6-dihydropyridine-3-carboxamide] |
| 0.405 | O=C(N[C@@H](c1ccc(C(F)(F)F)cc1)c1ncccc1C(F)(F)F)c1cc2cccnc2[nH]1 [Example 66, (S)-N-((4-(trifluoromethyl)phenyl)(3-(trifluoromethyl)pyridin-2-yl)methyl)-1H-pyrrolo[2,3-b]pyridine-2-carboxamide] |
| 0.0417 | O=C(N[C@@H](c1ccc(C(F)(F)F)cc1)c1ncccc1C(F)(F)F)c1cccc(Cl)c1 [Example 208, (S)-3-chloro-N-((4-(trifluoromethyl)phenyl)(3-(trifluoromethyl)pyridin-2-yl)methyl)benzamide] |
| 0.0124 | CCc1cccnc1[C@@H](NC(=O)c1ccc(=O)[nH]c1)c1ccc(C(F)(F)F)cc1 [Example 430, (S)—N-((3-Ethylpyridin-2-yl)(4-(trifluoromethyl)phenyl)methyl)-6-oxo-1,6-dihydropyridine-3-carboxamide] |
| 0.0159 | O=C1CCc2cc(C(=O)N[C@@H](c3ccc(OC(F)(F)F)c(F)c3)c3ncccc3F)ccc2N1 [Example 351, (S)-N-((3-fluoro-4-(trifluoromethoxy)phenyl)(3-fluoropyridin-2-yl)methyl)-2-oxo-1,2,3,4-tetrahydroquinoline-6-carboxamide] |
| 1.05 | Cc1cc(C)cc([C@H](NC(=O)c2ccc(=O)[nH]c2)c2ncccc2F)c1 [Example 324, (S)-N-((3,5-dimethylphenyl)(3-fluoropyridin-2-yl)methyl)-6-oxo-1,6-dihydropyridine-3-carboxamide] |
